Laboratory results reported in patent US11066371B2, “Pyridine compound, making, and use thereof” (UNITED ARAB EMIRATES UNIVERSITY, priority 2015, dated 2021).

melting point: > 300 °C
Structure (SMILES): Cc1c(C#N)c([O-])nc(-c2ccccc2)c1/N=N/c1ccc([N+](=O)[O-])cc1.[K+]
